From patent US20240158418A1 (C4 Therapeutics, Inc., priority 2021, published 2024)
Where two headings read alike, the source gives them in different places.

Target: T1, EGFR L858R-T790M (Homo sapiens, UniProt P00533, L858R/T790M)
T1 construct: NCI-H1975 (harboring EGFR heterozygous L858R-T790M mutations); host or cells: NCI-H1975
Assay: EGFR degradation, Total EGFR (L858R-specific) HTRF, NCI-H1975
Assay type: cell-based
Details: NCI-H1975 cells, 6 hours, Total EGFR HTRF, read-out: H1975 EGFR DC50
From the text: NCI-H1975 (harboring EGFR heterozygous L858R-T790M mutations) and NCI-H3255 (harboring EGFR heterozygous L858R mutation) were purchased from ATCC and NCI, respectively. NCI-H1975+CS (harboring EGFR heterozygous L858R-T790M-C797S mutations) was generated using CRISPR technology to introduce the additional C797S mutation by Horizon Discovery. A431 (harboring EGFR wildtype) was purchased from ATCC. RPMI 1640 no-phenol red medium and fetal bovine serum (FBS) were purchased from Gibco (Grand Island, NY, USA). Cell culture flasks and 384-well microplates were acquired from VWR (Radnor, PA, USA). Phosphorylated (pY1068) EGFR and Total EGFR (using L858R-specific detection antibody and pan-EGFR antibody for EGFR mutant cell lines and EGFR wild-type cell lines, respectively) HTRF assay kits were purchased from Cisbio (Bedford, MA, USA).
Degradation of EGFR protein containing L858R mutation or wild-type was determined based on quantification of FRET signal using a Total EGFR (L858R-specific or pan-EGFR detecting) HTRF assay kit. Phospho-EGFR (pEGFR) inhibition was determined based on quantification of FRET signal using a pY1068 EGFR HTRF assay kit. In separate assay plates, test compounds were added to the 384-well plate from a top concentration of 10 μM with 11 points, half log titration in duplicates. For each assay, 12.5 uL of cells suspended in assay media (RPMI 1640 no-phenol red medium+10% FBS) at cell densities indicated for each cell line in Table 8 below were dispensed using a multi-channel pipette to 384-well low volume white HTRF microplates containing a duplicate concentration range of test compounds and DMSO controls. The plates were kept at 37° C. with 5% CO2 for 6 hours and then incubated with either phospho EGFR or Total EGFR HTRF detection antibodies according to the cell line and EGFR mutant being assayed. Cells treated in the absence of the test compound were the negative control. Positive control was set by wells containing all reagents but no cells. FRET signal was acquired on EnVision™ Multilabel Reader (PerkinElmer, Santa Clara, CA, USA). Compound concentration that achieves 50% degradation and inhibition was reported as DC50 and IC50, respectively.

T1 sequence (P00533 25-1210 T790M/L858R): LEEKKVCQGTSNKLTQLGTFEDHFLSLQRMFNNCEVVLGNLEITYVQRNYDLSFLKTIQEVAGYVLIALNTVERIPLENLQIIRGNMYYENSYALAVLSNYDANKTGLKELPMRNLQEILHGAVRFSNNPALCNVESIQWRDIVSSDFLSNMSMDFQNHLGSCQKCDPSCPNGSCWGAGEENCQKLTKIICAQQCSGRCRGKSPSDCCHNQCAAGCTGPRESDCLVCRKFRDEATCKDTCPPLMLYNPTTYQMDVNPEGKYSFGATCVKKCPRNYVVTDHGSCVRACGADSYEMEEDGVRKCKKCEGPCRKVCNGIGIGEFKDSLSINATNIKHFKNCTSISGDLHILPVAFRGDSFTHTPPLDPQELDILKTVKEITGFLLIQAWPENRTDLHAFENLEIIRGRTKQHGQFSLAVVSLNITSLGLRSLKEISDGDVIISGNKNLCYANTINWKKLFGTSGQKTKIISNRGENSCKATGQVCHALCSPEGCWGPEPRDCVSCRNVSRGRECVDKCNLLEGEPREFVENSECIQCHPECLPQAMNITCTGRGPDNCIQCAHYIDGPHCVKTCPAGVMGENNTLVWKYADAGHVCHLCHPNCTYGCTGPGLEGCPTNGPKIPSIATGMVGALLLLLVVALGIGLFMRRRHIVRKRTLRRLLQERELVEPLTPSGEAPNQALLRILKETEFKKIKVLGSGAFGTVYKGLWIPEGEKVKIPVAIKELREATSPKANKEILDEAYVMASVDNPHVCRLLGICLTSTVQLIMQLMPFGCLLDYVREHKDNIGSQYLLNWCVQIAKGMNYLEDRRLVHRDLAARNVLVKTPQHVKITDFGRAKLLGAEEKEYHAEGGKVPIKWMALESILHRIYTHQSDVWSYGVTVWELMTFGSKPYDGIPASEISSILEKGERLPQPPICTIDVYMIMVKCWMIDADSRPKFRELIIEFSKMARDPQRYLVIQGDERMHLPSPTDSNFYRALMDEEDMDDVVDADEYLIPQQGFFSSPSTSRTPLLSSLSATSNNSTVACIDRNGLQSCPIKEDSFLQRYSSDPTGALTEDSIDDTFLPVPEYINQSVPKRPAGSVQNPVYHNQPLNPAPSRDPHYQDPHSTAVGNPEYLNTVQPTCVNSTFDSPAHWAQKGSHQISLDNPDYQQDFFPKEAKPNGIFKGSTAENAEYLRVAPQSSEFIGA

| SMILES | DC50 (Table 9A) [nM] | DC50 (Table 9B) [nM] |
| --- | --- | --- |
| O=C1CC[C@@H](Nc2ccc(C3CCN(CC(=O)N4CCC(c5ccc(-c6cc(F)c7c(c6)C(=O)N(C(C(=O)Nc6nccs6)c6ncn8c6CCC8)C7)cc5)CC4)CC3)cc2)C(=O)N1 (stereo partly drawn) [Compound 23, 2-(6,7-dihydro-5H-pyrrolo[1,2-c]imidazol-1-yl)-2-(6-(4-(1-(2-(4-(4-(((R)-2,6-dioxopiperidin-3-yl)amino)phenyl)piperidin-1-yl)acetyl)piperidin-4-yl)phenyl)-4-fluoro-1-oxoisoindolin-2-yl)-N-(thiazol-2-yl)acetamide] | < 50 |  |
| O=C1CCC(Nc2ccc(N3CCC(O)(CC(=O)N4CC5(C4)CN(c4ccc(-c6cc(F)c7c(c6)C(=O)N(C(C(=O)Nc6nccs6)c6ncn8c6CCC8)C7)cc4)C5)CC3)c(Cl)c2)C(=O)N1 (centres unmarked) [Compound 117, 2-[6-[4-[2-[2-[1-[2-chloro-4-[(2,6-dioxo-3-piperidyl)amino]phenyl]-4-hydroxy-4-piperidyl]acetyl]-2,6-diazaspiro[3.3]heptan-6-yl]phenyl]-4-fluoro-1-oxo-isoindolin-2-yl]-2-(6,7-dihydro-5H-pyrrolo[1,2-c]imidazol-1-yl)-N-thiazol-2-yl-acetamide] |  | < 50 |
| O=C1CC[C@H](Nc2ccc(C3CCN(CC(=O)N4CC5(C4)CN(c4ccc(-c6cc(F)c7c(c6)C(=O)N(C(C(=O)Nc6nccs6)c6ncn8c6CCC8)C7)cn4)C5)CC3)c(F)c2)C(=O)N1 (stereo partly drawn) [Compound 95, 2-(6,7-dihydro-5H-pyrrolo[1,2-c]imidazol-1-yl)-2-(6-(6-(6-(2-(4-(4-(((S)-2,6-dioxopiperidin-3-yl)amino)-2-fluorophenyl)piperidin-1-yl)acetyl)-2,6-diazaspiro[3.3]heptan-2-yl)pyridin-3-yl)-4-fluoro-1-oxoisoindolin-2-yl)-N-(thiazol-2-yl)acetamide] |  | < 50 |
| O=C1CCC(Nc2cc(F)c(N3CCC(O)(CC(=O)N4CC5(C4)CN(c4ccc(-c6cc(F)c7c(c6)C(=O)N(C(C(=O)Nc6nccs6)c6ncn8c6CCC8)C7)cc4)C5)CC3)c(F)c2)C(=O)N1 (single isomer, unassigned; isomer 1) [Compound 119, 2-(6,7-dihydro-5H-pyrrolo[1,2-c]imidazol-1-yl)-2-(6-(4-(6-(2-(1-(4-((2,6-dioxopiperidin-3-yl)amino)-2,6-difluorophenyl)-4-hydroxypiperidin-4-yl)acetyl)-2,6-diazaspiro[3.3]heptan-2-yl)phenyl)-4-fluoro-1-oxoisoindolin-2-yl)-N-(thiazol-2-yl)acetamide, isomer 1] |  | < 50 |
| O=C1CC[C@H](Nc2ccc(N3CCC(O)(CC(=O)N4CC5(C4)CN(c4ccc(-c6cc(F)c7c(c6)C(=O)N(C(C(=O)Nc6nccs6)c6ncn8c6CCC8)C7)cn4)C5)CC3)c(F)c2)C(=O)N1 (stereo partly drawn) [Compound 110, 2-(6,7-dihydro-5H-pyrrolo[1,2-c]imidazol-1-yl)-2-(6-(6-(6-(2-(1-(4-(((S)-2,6-dioxopiperidin-3-yl)amino)-2-fluorophenyl)-4-hydroxypiperidin-4-yl)acetyl)-2,6-diazaspiro[3.3]heptan-2-yl)pyridin-3-yl)-4-fluoro-1-oxoisoindolin-2-yl)-N-(thiazol-2-yl)acetamide] |  | < 50 |
| Cn1nc(N2CCC(=O)NC2=O)c2ccc(C3CCN(C(=O)CN4CC5(C4)CN(c4ccc(-c6cc(F)c7c(c6)C(=O)N(C(C(=O)Nc6nccs6)c6ncn8c6CCC8)C7)cn4)C5)CC3(F)F)cc21 (centres unmarked) [Compound 118, 2-(6,7-dihydro-5H-pyrrolo[1,2-c]imidazol-1-yl)-2-(6-(6-(6-(2-(4-(3-(2,4-dioxotetrahydropyrimidin-1(2H)-yl)-1-methyl-1H-indazol-6-yl)-3,3-difluoropiperidin-1-yl)-2-oxoethyl)-2,6-diazaspiro[3.3]heptan-2-yl)pyridin-3-yl)-4-fluoro-1-oxoisoindolin-2-yl)-N-(thiazol-2-yl)acetamide] |  | < 50 |
| Cn1nc(N2CCC(=O)NC2=O)c2ccc(C3CCN(CC(=O)N4CC5(C4)CN(c4ccc(-c6cc(F)c7c(c6)C(=O)N(C(C(=O)Nc6ccccn6)c6ncn8c6CCC8)C7)cc4)C5)CC3)cc21 (centres unmarked) [Compound 54, 2-(6,7-dihydro-5H-pyrrolo[1,2-c]imidazol-1-yl)-2-[6-[4-[2-[2-[4-[3-(2,4-dioxohexahydropyrimidin-1-yl)-1-methyl-indazol-6-yl]-1-piperidyl]acetyl]-2,6-diazaspiro[3.3]heptan-6-yl]phenyl]-4-fluoro-1-oxo-isoindolin-2-yl]-N-(2-pyridyl)acetamide] | < 50 |  |
| O=C1CCC(Nc2ccc(N3CCCC(O)(CC(=O)N4CC5(C4)CN(c4ccc(-c6cc(F)c7c(c6)C(=O)N(C(C(=O)Nc6nccs6)c6ncn8c6CCC8)C7)cc4)C5)CC3)c(F)c2)C(=O)N1 (single isomer, unassigned; isomer b2) [Compound 167, 2-(6,7-dihydro-5H-pyrrolo[1,2-c]imidazol-1-yl)-2-[6-[4-[2-[2-[1-[4-[[2,6-dioxo-3-piperidyl]amino]-2-fluoro-phenyl]-4-hydroxy-azepan-4-yl]acetyl]-2,6-diazaspiro[3.3]heptan-6-yl]phenyl]-4-fluoro-1-oxo-isoindolin-2-yl]-N-thiazol-2-yl-acetamide, isomer B2] |  | 50 to 150 |
| O=C1CC[C@H](Nc2ccc(N3CCC(O)(CC(=O)N4CC5(C4)CN(c4ccc(-c6cc(F)c7cn(C(C(=O)Nc8nccs8)c8ncn9c8CCC9)nc7c6)cn4)C5)CC3)c(F)c2)C(=O)N1 (stereo partly drawn) [Compound 75, 2-(6,7-dihydro-5H-pyrrolo[1,2-c]imidazol-1-yl)-2-[6-[6-[2-[2-[1-[4-[[(3S)-2,6-dioxo-3-piperidyl]amino]-2-fluoro-phenyl]-4-hydroxy-4-piperidyl]acetyl]-2,6-diazaspiro[3.3]heptan-6-yl]-3-pyridyl]-4-fluoro-indazol-2-yl]-N-thiazol-2-yl-acetamide] |  | < 50 |
| O=C1CCC(Nc2cnc(N3CCC(O)(CC(=O)N4CC5(C4)CN(c4ccc(-c6cc(F)c7c(c6)C(=O)N(C(C(=O)Nc6nccs6)c6ncn8c6CCC8)C7)cc4)C5)CC3)c(F)c2)C(=O)N1 (single isomer, unassigned; isomer 1) [Compound 139, 2-(6,7-dihydro-5H-pyrrolo[1,2-c]imidazol-1-yl)-2-[6-[4-[2-[2-[1-[5-[[2,6-dioxo-3-piperidyl]amino]-3-fluoro-2-pyridyl]-4-hydroxy-4-piperidyl]acetyl]-2,6-diazaspiro[3.3]heptan-6-yl]phenyl]-4-fluoro-1-oxo-isoindolin-2-yl]-N-thiazol-2-yl-acetamide, isomer 1] |  | < 50 |
| O=C1NC(=O)C2(Nc3ccc(C4CCN(CC(=O)N5CCC(Oc6ccc(-c7cc(F)c8c(c7)C(=O)N(C(C(=O)Nc7nccs7)c7ncn9c7CCC9)C8)cc6)CC5)CC4)cc3)CC1C2 (centres unmarked) [Compound 38, 2-(6,7-dihydro-5H-pyrrolo[1,2-c]imidazol-1-yl)-2-(6-(4-((1-(2-(4-(4-((2,4-dioxo-3-azabicyclo[3.1.1]heptan-1-yl)amino)phenyl)piperidin-1-yl)acetyl)piperidin-4-yl)oxy)phenyl)-4-fluoro-1-oxoisoindolin-2-yl)-N-(thiazol-2-yl)acetamide] | 50 to 150 |  |
